The record followed here is PubChem BioAssay AID464 (The Scripps Research Institute Molecular Screening Center, 2006).

Active and inactive are the calls of the source.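 The calls were made as follows: active = Compounds that kill half the cells at a concentration of 5 micromolar or below, from the fitted or estimated CC50; inactive = CC50 above 5 micromolar.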

In general, CC50 refers to the concentration at which the toxic effect on the cells reaches its halfway point.

This assay has as its system Jurkat E6.1 viability, ATP luminescence, 48 h. Briefly: viability loss in Jurkat T cells – cell-based, ATP luminescence, 48 h, 60K MLSMR, cytotoxicity control, dose response (AID 464).
In the case of `Nc1ccc(N2CCCCCC2)cc1`, the CC50 was 26.3 µM (inactive). Take `COc1cc(NS(=O)(=O)c2ccc3c(c2)oc(=O)n3C)cc(OC)c1OC`: the CC50 is 5.88 µM (inactive). With `O=c1oc2ccccc2cc1NCc1ccccc1O`, the CC50 is > 40 µM (inactive). As for `Cc1cc(Cl)ccc1OCCCC(=O)NO`, the figure is 8.2 µM (inactive). As for `COc1cc(C(=O)OCC(=O)c2cc(C)n(C)c2C)cc(OC)c1OC`, the figure is > 4.4 µM (inactive); as for `O=C(NCc1ccccc1)c1noc2c1CCCC2`, 8.77 µM (inactive). As for `Oc1c(C(Nc2nc3ccccc3s2)c2ccco2)ccc2cccnc12` (stereo unspecified), the CC50 is 7.79 µM (inactive).

As to `COc1cc2c(cc1OC)C(C)N(C(=O)c1cc3ccccc3o1)CC2` (stereo unspecified), the CC50 is 24.4 µM (inactive). For `CCOC(=O)/C=C/S(=O)(=O)c1ccc(NC(C)=O)cc1`, the CC50 was 3.21 µM. Regarding `Oc1ccc(Cl)cc1CNc1ccc(Br)cn1`, the CC50 is > 40 µM (inactive). In the case of `CCCNc1nc2c(c(=O)n(C)c(=O)n2C)n1Cc1cccc(C)c1`, the CC50 is 10.8 µM (inactive). For `CCCCCCc1ccc(-c2ncc(N)cn2)cc1`, the CC50 is 28.5 µM (inactive).

On to `COc1ccc(OC)c(Nc2cc(-c3ccccc3)nc(N)n2)c1`, for which the CC50 was 0.699 µM. Take `COc1cccc(-c2cc(C(=O)Nc3cc(OC)c(OC)c(OC)c3)no2)c1`: the CC50 is 8.79 µM (inactive). Take `Cn1nc(-c2ccc(OCC(=O)N3CCN(Cc4ccccc4)CC3)cc2)c2ccccc2c1=O`: the CC50 is 9.14 µM (inactive).

Regarding `CC1CCCCC1NS(=O)(=O)c1ccc(S(=O)(=O)NCc2ccncc2)cc1` (stereo unspecified), the CC50 was 2.37 µM.

Consider `COc1ccc(CNC(=O)c2cc3c(C)nc4ccccc4c3o2)c(OC)c1`, for which the CC50 is > 40 µM (inactive).

Consider `CCN(C(=O)c1ccc(C(C)(C)C)cc1)c1nnc(Cn2nnc3ccccc32)s1`, for which the CC50 was > 40 µM (inactive). As for `COc1ccc(N=Cc2c(O)[nH]c3ccccc23)cc1OC`, the CC50 was 11.3 µM (inactive). As for `O=C(CSc1n[nH]c(-c2ccccc2O)n1)N1CCCc2ccccc21`, the figure is 9.5 µM (inactive); as for `COC(=O)c1ccccc1NC(=O)Cn1c(-c2nonc2N)nc2ccccc21`, 0.245 µM; as for `O=C(Nc1ccc(N2CCOCC2)cc1)Nc1ccc2nc(-c3ccco3)c(-c3ccco3)nc2c1`, 10.4 µM (inactive). In the case of `O=C(CSc1nc(-c2ccco2)cc(C(F)(F)F)n1)Nc1ccc2c(c1)OCO2`, the CC50 is 5.19 µM (inactive). For the molecule `Nc1nc(-c2ccccc2)cc(N2CCCCC2)n1`, the CC50 was 0.877 µM.

Take `CCCCCCn1ccc(=N)cc1`: the CC50 is 5.08 µM (inactive). As for `Cc1nn(-c2ccccc2)c(C)c1C(=O)OCC(=O)c1c(N)n(CC(C)C)c(=O)n(C)c1=O`, the CC50 is 9.53 µM (inactive).
